# Test results published in US9783536B2, “Nitrogen-containing heterocyclic compound or salt thereof” (FUJIFILM Corporation, priority 2013, dated 2017).
# Where a name gives a salt, the structure may show the parent alone.
# Key:
# [1] = molecular target: T1, human PI3Kα protein (Homo sapiens, UniProt P42336); test: PI3Kα enzyme assay (ADP-Glo); format: biochemical; details: 4.5 nmol/L PI3Kα, PIP2 50 μmol/L, ATP 100 μmol/L; read-out: PI3Kα enzyme inhibitory activity
# T1 construct: purchased Carna Biosciences, Inc; host or cells: baculovirus expression system
# Outline: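 Biotinylated human PI3Kα (baculovirus-expressed, 4.5 nmol/L) pre-incubated 15 min with compound in Tris-HCl pH 7.5, MgCl2, BSA; reaction 60 min at 25° C with 50 μmol/L PIP2 and 100 μmol/L ATP final. ADP quantified by ADP-Glo luminescence; IC50 calculated.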
# [2] = molecular target: T2, GST fusion human ERK2 protein (Homo sapiens, UniProt P28482); test: ERK2 enzyme assay (1); format: biochemical; details: 2.5 nmol/L ERK2, ATP 43.1 μmol/L; read-out: ERK2 enzyme inhibitory activity (1)
# T2 construct: purchased Carna Biosciences, Inc; host or cells: E. coli expression system
# Method: In an ERK2 enzyme assay, GLUTATHIONE S-TRANSFERASE (GST) FUSION HUMAN ERK2 PROTEIN (manufactured by Carna Biosciences, Inc.), which was produced by using an E. coli expression system, was used.
# 12 μL of a reaction liquid (2.5 nmol/L ERK2, 100 mmol/L Hepes, 10 mmol/L MgCl2, 1.5 mmol/L DTT, 0.003% Brij35, pH 7.5) including ERK2 protein and a test compound having a predetermined concentration was allowed to stand at room temperature for 15 minutes. Then, 3 μL of a mixture liquid of FL-PEPTIDE8 (5-FAM-IPTSPITTTYFFFKKK-COOH) (manufactured by Caliper Life Sciences), which is substrate peptide, and ATP (manufactured by Sigma-Aldrich Co. LLC.) was added thereto such that the final concentrations thereof became 4.25 μmol/L and 43.1 μmol/L, respectively, and an enzyme reaction was performed by allowing to stand at 25° C. for 120 minutes.
# After the reaction, the enzyme reaction was stopped by adding 30 μL of a reaction stopper liquid (100 mmol/L HEPES, 11.2 mmol/L EDTA, 5.6% Brij35, pH 7.5) including a 0.5% COATING REAGENT 8 (trade name, manufactured by Perkin Elmer Inc.) thereto. Then, phosphorylated peptide and non-phosphorylated peptide were separated using LABCHIP EZ READER (trade name, manufactured by Caliper Life Sciences), and the porportion of the phosphorylated peptide was quantified.
# The inhibitory activities of the compounds were evaluated using IC50 (50% inhibitory concentration). The IC50 was calculated using XLFIT (trade name, manufactured by ID Business Solutions).
# T1 sequence (P42336 whole entry): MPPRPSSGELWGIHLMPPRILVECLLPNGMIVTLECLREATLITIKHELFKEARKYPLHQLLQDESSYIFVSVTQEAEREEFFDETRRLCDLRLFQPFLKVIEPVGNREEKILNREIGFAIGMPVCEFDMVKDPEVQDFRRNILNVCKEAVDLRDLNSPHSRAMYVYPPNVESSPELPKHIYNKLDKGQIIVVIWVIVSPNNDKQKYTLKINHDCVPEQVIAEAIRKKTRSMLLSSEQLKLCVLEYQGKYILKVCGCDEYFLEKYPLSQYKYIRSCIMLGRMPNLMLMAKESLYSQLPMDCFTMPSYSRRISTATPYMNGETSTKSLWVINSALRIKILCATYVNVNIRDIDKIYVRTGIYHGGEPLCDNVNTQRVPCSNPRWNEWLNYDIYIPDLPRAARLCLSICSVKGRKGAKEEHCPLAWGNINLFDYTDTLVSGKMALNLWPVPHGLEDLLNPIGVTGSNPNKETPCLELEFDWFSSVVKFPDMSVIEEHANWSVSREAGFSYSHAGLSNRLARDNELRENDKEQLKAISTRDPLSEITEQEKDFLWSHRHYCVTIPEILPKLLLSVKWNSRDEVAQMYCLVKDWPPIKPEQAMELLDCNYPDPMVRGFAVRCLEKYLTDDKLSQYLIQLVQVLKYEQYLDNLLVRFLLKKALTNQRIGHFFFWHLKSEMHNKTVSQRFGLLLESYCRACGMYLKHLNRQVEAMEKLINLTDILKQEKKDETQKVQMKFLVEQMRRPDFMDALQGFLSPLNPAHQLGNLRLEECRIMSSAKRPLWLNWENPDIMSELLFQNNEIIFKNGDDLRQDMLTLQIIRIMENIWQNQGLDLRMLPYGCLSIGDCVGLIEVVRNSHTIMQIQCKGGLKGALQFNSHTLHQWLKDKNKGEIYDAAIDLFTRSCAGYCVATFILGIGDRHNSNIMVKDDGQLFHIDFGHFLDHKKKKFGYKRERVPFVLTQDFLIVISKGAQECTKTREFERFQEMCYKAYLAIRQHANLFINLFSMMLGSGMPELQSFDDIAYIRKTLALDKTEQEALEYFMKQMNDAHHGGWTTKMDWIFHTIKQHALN
# T1 sequence (P27986 whole entry partner): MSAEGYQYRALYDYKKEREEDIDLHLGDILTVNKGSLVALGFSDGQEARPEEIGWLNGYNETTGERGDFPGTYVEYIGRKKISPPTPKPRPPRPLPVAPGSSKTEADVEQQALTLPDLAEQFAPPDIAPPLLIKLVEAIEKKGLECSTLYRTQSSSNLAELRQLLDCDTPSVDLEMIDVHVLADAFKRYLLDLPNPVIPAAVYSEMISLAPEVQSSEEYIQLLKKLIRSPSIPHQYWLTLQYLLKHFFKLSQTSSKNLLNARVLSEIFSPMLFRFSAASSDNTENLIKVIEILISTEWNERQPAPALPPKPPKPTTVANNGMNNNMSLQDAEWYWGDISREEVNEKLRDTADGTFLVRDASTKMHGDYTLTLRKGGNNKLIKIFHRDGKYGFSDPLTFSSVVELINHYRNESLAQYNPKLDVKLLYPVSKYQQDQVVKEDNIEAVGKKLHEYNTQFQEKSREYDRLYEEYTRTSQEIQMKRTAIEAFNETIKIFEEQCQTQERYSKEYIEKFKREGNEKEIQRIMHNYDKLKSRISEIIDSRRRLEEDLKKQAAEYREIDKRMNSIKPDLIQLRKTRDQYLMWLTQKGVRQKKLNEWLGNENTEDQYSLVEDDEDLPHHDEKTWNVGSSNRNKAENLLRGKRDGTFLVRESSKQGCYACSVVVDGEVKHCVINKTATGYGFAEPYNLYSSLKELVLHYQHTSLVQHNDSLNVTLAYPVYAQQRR
# T2 sequence (P28482 whole entry, the tested form may be a part): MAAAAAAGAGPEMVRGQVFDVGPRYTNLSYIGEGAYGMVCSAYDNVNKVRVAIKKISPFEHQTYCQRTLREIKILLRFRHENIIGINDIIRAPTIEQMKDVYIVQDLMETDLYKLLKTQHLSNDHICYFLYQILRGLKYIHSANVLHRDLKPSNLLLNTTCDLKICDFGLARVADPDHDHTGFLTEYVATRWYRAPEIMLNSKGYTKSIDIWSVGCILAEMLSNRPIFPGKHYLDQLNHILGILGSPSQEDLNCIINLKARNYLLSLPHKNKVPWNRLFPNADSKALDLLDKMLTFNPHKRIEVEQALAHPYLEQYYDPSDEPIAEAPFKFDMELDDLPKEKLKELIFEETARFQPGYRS
IC50 [1],IC50 [2],SMILES
1 to 10 µM,< 1 µM,OCCCN1CCN(c2cnc3ccc(Nc4nnc(C5CCCC5)s4)nc3c2)CC1 [Example 0050]
1 to 10 µM,< 1 µM,OC1CCN(c2cnc3ccc(Nc4nnc(C5CCCC5)s4)nc3c2)CC1 [Example 0051]
< 1 µM,< 1 µM,CN1CCN(c2cnc3ccc(Nc4nnc(C5CCCC5)s4)nc3c2)CC1=O [Example 0054]
10 to 50 µM,< 1 µM,CCOC(=O)C1CCCN(c2cnc3ccc(Nc4nnc(C5CCCC5)s4)nc3c2)C1 (centres unmarked) [Example 0056]
1 to 10 µM,< 1 µM,"O=C(CO)N1CCN(c2cnc3ccc(Nc4nnc(C5CCCC5)s4)nc3c2)CC1 [Example 0058, 1-(4-(6-((5-cyclopentyl-1,3,4-thiadiazol-2-yl)amino)-1,5-naphthyridin-3-yl)piperazin-1-yl)-2-hydroxyethanone]"
10 to 50 µM,< 1 µM,CN1CCCN(c2cnc3ccc(Nc4nnc(C5CCCC5)s4)nc3c2)CC1 [Example 0060]
1 to 10 µM,< 1 µM,COC[C@@H]1CCCN1c1cnc2ccc(Nc3nnc(C4CCCC4)s3)nc2c1 [Example 0061]
1 to 10 µM,< 1 µM,COC[C@H]1CCCN1c1cnc2ccc(Nc3nnc(C4CCCC4)s3)nc2c1 [Example 0062]
< 1 µM,< 1 µM,CC(=O)N1CCC(Nc2cnc3ccc(Nc4nnc(C5CCCC5)s4)nc3c2)CC1 [Example 0063]
< 1 µM,< 1 µM,c1cc(N2CCOCC2)ncc1Nc1cnc2ccc(Nc3nnc(C4CCCC4)s3)nc2c1 [Example 0066]
1 to 10 µM,< 1 µM,c1ccc(CNc2cnc3ccc(Nc4nnc(C5CCCC5)s4)nc3c2)nc1 [Example 0068]
10 to 50 µM,1 to 10 µM,c1ccc(-c2ccc(Nc3cnc4ccc(Nc5nnc(C6CCCC6)s5)nc4c3)cn2)cc1 [Example 0069]
< 1 µM,< 1 µM,Clc1cc(Nc2cnc3ccc(Nc4nnc(C5CCCC5)s4)nc3c2)cnc1-n1cccn1 [Example 0078]
< 1 µM,< 1 µM,CS(=O)(=O)N1CCC(Nc2cnc3ccc(Nc4nnc(C5CCCC5)s4)nc3c2)CC1 [Example 0098]
< 1 µM,< 1 µM,c1ncc(N2CCCCC2)cc1Nc1cnc2ccc(Nc3nnc(C4CCCC4)s3)nc2c1 [Example 0101]
< 1 µM,< 1 µM,CN1CCN(c2cncc(Nc3cnc4ccc(Nc5nnc(C6CCCC6)s5)nc4c3)c2)CC1 [Example 0102]
1 to 10 µM,< 1 µM,O=C(c1ccc(Nc2cnc3ccc(Nc4nnc(C5CCCC5)s4)nc3c2)cc1)N1CCOCC1 [Example 0104]
< 1 µM,< 1 µM,CC(C)c1cnc(Nc2ccc3ncc(-c4cnn(CCCN5CCCC5)c4)cc3n2)s1 [Example 0119]
< 1 µM,< 1 µM,CC(C)c1nnc(Nc2ccc3ncc(-c4cn(C)nc4C(C)C)cc3n2)s1 [Example 0125]
< 1 µM,< 1 µM,"c1nc2ccc(Nc3ncc(C4CCCC4)s3)nc2cc1-c1cnn(CCCN2CCCC2)c1 [Example 0126, 5-cyclopentyl-N-(7-(1-(3-(pyrrolidin-1-yl)propyl)-1H-pyrazol-4-yl)-1,5-naphthyridin-2-yl)thiazole-2-amine]"
1 to 10 µM,< 1 µM,Cn1cc(-c2cnc3ccc(Nc4ncc(C5CCCC5)s4)nc3c2)cn1 [Example 0127]

# The remaining lines, values behind:
SMILES,IC50 [1],IC50 [2]
CN1CCN(c2cnc3ccc(Nc4nnc(C5CCCC5)s4)nc3c2)CC1 [Example 0052],1 to 10 µM,< 1 µM
"CS(=O)(=O)N1CCN(c2cnc3ccc(Nc4nnc(C5CCCC5)s4)nc3c2)CC1 [Example 0053, 5-cyclopentyl-N-(7-(4-(methylsulfonyl)piperazin-1-yl)-1,5-naphthyridin-2-yl)-1,3,4-thiadiazole-2-amine hydrochloride]",1 to 10 µM,< 1 µM
c1nc2ccc(Nc3nnc(C4CCCC4)s3)nc2cc1N1CCNCC1 [Example 0055],1 to 10 µM,< 1 µM
CCOC(=O)C1CCN(c2cnc3ccc(Nc4nnc(C5CCCC5)s4)nc3c2)CC1 [Example 0057],10 to 50 µM,1 to 10 µM
"CN(C)CC(=O)N1CCN(c2cnc3ccc(Nc4nnc(C5CCCC5)s4)nc3c2)CC1 [Example 0059, 1-(4-(6-((5-cyclopentyl-1,3,4-thiadiazol-2-yl)amino)-1,5-naphthyridin-3-yl)piperazin-1-yl)-2-(dimethylamino)ethanone]",1 to 10 µM,< 1 µM
"CN1CCN(c2cnc3ccc(Nc4nnc(C5CCCC5)s4)nc3c2)CCC1=O [Example 0064, 1-(6-((5-cyclopentyl-1,3,4-thiadiazol-2-yl)amino)-1,5-naphthyridin-3-yl)-4-methyl-1,4-diazepan-5-one hydrochloride]",1 to 10 µM,< 1 µM
CC(=O)N1CCC(Nc2cnc3ccc(Nc4nnc(C5CCCC5)s4)nc3c2)C1 (centres unmarked) [Example 0065],1 to 10 µM,< 1 µM
COc1ccc(Nc2cnc3ccc(Nc4nnc(C5CCCC5)s4)nc3c2)cn1 [Example 0067],< 1 µM,< 1 µM
c1ccc(-c2cncc(Nc3cnc4ccc(Nc5nnc(C6CCCC6)s5)nc4c3)c2)cc1 [Example 0070],< 1 µM,< 1 µM
c1cnn(-c2cncc(Nc3cnc4ccc(Nc5nnc(C6CCCC6)s5)nc4c3)c2)c1 [Example 0073],< 1 µM,< 1 µM
Cc1ncc(Nc2cnc3ccc(Nc4nnc(C5CCCC5)s4)nc3c2)cc1-n1nccn1 [Example 0074],< 1 µM,< 1 µM
c1ccc2c(Nc3cnc4ccc(Nc5nnc(C6CCCC6)s5)nc4c3)cncc2c1 [Example 0075],< 1 µM,1 to 10 µM
CC(=O)N1CCCC(Nc2cnc3ccc(Nc4nnc(C5CCCC5)s4)nc3c2)C1 (centres unmarked) [Example 0076],< 1 µM,< 1 µM
COc1ncccc1Nc1cnc2ccc(Nc3nnc(C4CCCC4)s3)nc2c1 [Example 0077],1 to 10 µM,1 to 10 µM
Cc1ccncc1Nc1cnc2ccc(Nc3nnc(C4CCCC4)s3)nc2c1 [Example 0079],1 to 10 µM,< 1 µM
COc1cc(Nc2cnc3ccc(Nc4nnc(C5CCCC5)s4)nc3c2)cc(OC)c1 [Example 0081],1 to 10 µM,< 1 µM
c1ncc(OCCN2CCOCC2)cc1Nc1cnc2ccc(Nc3nnc(C4CCCC4)s3)nc2c1 [Example 0082],< 1 µM,< 1 µM
c1ncc(OCCN2CCCC2)cc1Nc1cnc2ccc(Nc3nnc(C4CCCC4)s3)nc2c1 [Example 0083],< 1 µM,< 1 µM
CC(C)c1cncc(Nc2cnc3ccc(Nc4nnc(C5CCCC5)s4)nc3c2)c1 [Example 0099],< 1 µM,< 1 µM
CC(C)Oc1cncc(Nc2cnc3ccc(Nc4nnc(C5CCCC5)s4)nc3c2)c1 [Example 0100],1 to 10 µM,< 1 µM
CC(C)(C)c1cncc(Nc2cnc3ccc(Nc4nnc(C5CCCC5)s4)nc3c2)c1 [Example 0103],< 1 µM,< 1 µM
O=C(Cc1ccc(Nc2cnc3ccc(Nc4nnc(C5CCCC5)s4)nc3c2)cc1)N1CCOCC1 [Example 0105],< 1 µM,< 1 µM
O=C(c1ccc(Nc2cnc3ccc(Nc4nnc(C5CCCC5)s4)nc3c2)cn1)N1CCOCC1 [Example 0106],< 1 µM,< 1 µM
c1cc(Nc2cnc3ccc(Nc4nnc(C5CCCC5)s4)nc3c2)ccc1CCN1CCOCC1 [Example 0107],< 1 µM,< 1 µM
CS(=O)(=O)N1CCC(Nc2cnc3ccc(Nc4nnc(C5CCCC5)s4)nc3c2)C1 (centres unmarked) [Example 0108],1 to 10 µM,< 1 µM
CS(=O)(=O)N1CCCC(Nc2cnc3ccc(Nc4nnc(C5CCCC5)s4)nc3c2)C1 (centres unmarked) [Example 0109],< 1 µM,1 to 10 µM
"CCc1nn(C)cc1-c1cnc2ccc(Nc3nnc(C4CCCC4)s3)nc2c1 [Example 0110, 5-cyclopentyl-N-(7-(3-ethyl-1-methyl-1H-pyrazol-4-yl)-1,5-naphthyridin-2-yl)-1,3,4-thiadiazole-2-amine]",< 1 µM,< 1 µM
"CC(C)c1cnc(Nc2ccc3ncc(-c4cnn(C)c4)cc3n2)s1 [Example 0123, 5-isopropyl-N-(7-(1-methyl-1H-pyrazol-4-yl)-1,5-naphthyridin-2-yl)thiazole-2-amine]",< 1 µM,< 1 µM
